Reference: patent US20100298141A1, “SUBSTITUTED PYRIDINE N-OXIDE HERBICIDES” (E. I. DU PONT DE NEMOURS AND COMPANY, priority 2007, published 2010)

How the values were obtained:
crabgrass = assay: Test A pre-/postemergence greenhouse test; format: in vivo, Digitaria sanguinalis; settings: for Crabgrass, Large plant response rating: 0 to 100 scale; for Plant response rating, Crabgrass, Large: 0 to 100 scale where 0 is no effect and 100 is complete control
From the text: (§1) Seeds of barnyardgrass (Echinochloa crus-galli), crabgrass (Digitaria sanguinalis), giant foxtail (Setaria faberi), morningglory (Ipomoea spp.), redroot pigweed (Amaranthus retroflexus), velvetleaf (Abutilon theophrasti), wheat (Triticum aestivum), and corn (Zea mays) were planted into a blend of loam soil and sand and treated preemergence with a directed soil spray using test compounds formulated in a non-phytotoxic solvent mixture which included a surfactant. At the same time these species were also treated with postemergence applications of test compounds formulated in the same manner. Plants ranged in height from two to ten cm and were in the one- to two-leaf stage for the postemergence treatment. Treated plants and untreated controls were maintained in a greenhouse for approximately ten days, after which time all treated plants were compared to untreated controls and visually evaluated for injury. […] A dash (-) response means no test results.

barnyardgrass [1] = assay: Test C flooded paddy test; format: in vivo, Echinochloa crus-galli; settings: Flood
From the text: (§2) At time of treatment, test pots were flooded to 3 cm above the soil surface, treated by application of test compounds directly to the paddy water, and then maintained at that water depth for the duration of the test. Treated plants and controls were maintained in a greenhouse for 13 to 15 days, after which time all species were compared to controls and visually evaluated. […] A dash (-) response means no test result.

duck salad = assay: Test C flooded paddy test; format: in vivo, Heteranthera limosa; settings: Flood
From the text: as §2

redroot pigweed = assay: Test A pre-/postemergence greenhouse test; format: in vivo, Amaranthus retroflexus; settings: for Pigweed plant response rating: 0 to 100 scale; for Plant response rating, Pigweed: 0 to 100 scale where 0 is no effect and 100 is complete control
From the text: as §1

rice = assay: Test C flooded paddy test; format: in vivo, Oryza sativa; settings: Flood
From the text: as §2

velvetleaf = assay: Test A pre-/postemergence greenhouse test; format: in vivo, Abutilon theophrasti; settings: for Velvetleaf plant response rating: 0 to 100 scale; for Plant response rating, Velvetleaf: 0 to 100 scale where 0 is no effect and 100 is complete control
From the text: as §1

giant foxtail = assay: Test A pre-/postemergence greenhouse test; format: in vivo, Setaria faberi; settings: for Foxtail, Giant plant response rating: 0 to 100 scale; for Plant response rating, Foxtail, Giant: 0 to 100 scale where 0 is no effect and 100 is complete control
From the text: as §1

wheat = assay: Test A pre-/postemergence greenhouse test; format: in vivo, Triticum aestivum; settings: for Wheat plant response rating: 0 to 100 scale; for Plant response rating, Wheat: 0 to 100 scale where 0 is no effect and 100 is complete control
From the text: as §1

umbrella sedge = assay: Test C flooded paddy test; format: in vivo, Cyperus difformis; settings: Flood
From the text: as §2

corn = assay: Test A pre-/postemergence greenhouse test; format: in vivo, Zea mays; settings: for Corn plant response rating: 0 to 100 scale; for Plant response rating, Corn: 0 to 100 scale where 0 is no effect and 100 is complete control
From the text: as §1

barnyardgrass [2] = assay: Test A pre-/postemergence greenhouse test; format: in vivo, Echinochloa crus-galli; settings: for Barnyardgrass plant response rating: 0 to 100 scale; for Plant response rating, Barnyardgrass: 0 to 100 scale where 0 is no effect and 100 is complete control
From the text: as §1

morningglory = assay: Test A pre-/postemergence greenhouse test; format: in vivo, Ipomoea spp.; settings: for Morningglory plant response rating: 0 to 100 scale; for Plant response rating, Morningglory: 0 to 100 scale where 0 is no effect and 100 is complete control
From the text: as §1

[3] = Postemergence, 125 g ai/ha, 0 is no effect, 100 is complete control
[4] = Postemergence, 500 g ai/ha, 0 is no effect, 100 is complete control
[5] = Preemergence, 125 g ai/ha, 0 no effect, 100 complete control
[6] = 31 g ai/ha, scale 0 to 100 (0 no effect, 100 complete control)
[7] = 62 g ai/ha, scale 0 to 100, 0 no effect, 100 complete control, 13 to 15 days
[8] = 125 g ai/ha, scale 0 to 100, 0 no effect, 100 complete control, 13 to 15 days
[9] = 250 g ai/ha, scale 0 to 100 (0 no effect, 100 complete control)
[10] = 250 g ai/ha, scale 0 to 100, 0 no effect, 100 complete control, 13 to 15 days

Cc1cc[n+]([O-])c([S+]([O-])C(C)c2c(C(F)(F)F)nn(C)c2Cl)c1 (mixture of isomers) [Compound 15]
0: Crabgrass, Large plant response rating (crabgrass; [3]) | Crabgrass, Large plant response rating (crabgrass; [4]) | Crabgrass, Large plant response rating (crabgrass; [5]) | Pigweed plant response rating (redroot pigweed; [3]) | Pigweed plant response rating (redroot pigweed; [4]) | Plant response rating, Pigweed (redroot pigweed; Preemergence, 500 g ai/ha) | Plant response rating, Rice (rice; [6]) | Plant response rating, Rice (rice; [7]) | Plant response rating, Rice (rice; [8]) | Plant response rating, Rice (rice; [9]) | Velvetleaf plant response rating (velvetleaf; [3]) | Velvetleaf plant response rating (velvetleaf; [4]) | Velvetleaf plant response rating (velvetleaf; [5]) | Plant response rating, Velvetleaf (velvetleaf; Preemergence, 500 g ai/ha) | Foxtail, Giant plant response rating (giant foxtail; [3]) | Foxtail, Giant plant response rating (giant foxtail; [4]) | Foxtail, Giant plant response rating (giant foxtail; [5]) | Plant response rating, Foxtail, Giant (giant foxtail; Preemergence, 500 g ai/ha) | Wheat plant response rating (wheat; [3]) | Wheat plant response rating (wheat; [4]) | Wheat plant response rating (wheat; [5]) | Plant response rating, Wheat (wheat; Preemergence, 500 g ai/ha) | Corn plant response rating (corn; [3]) | Corn plant response rating (corn; [4]) | Corn plant response rating (corn; [5]) | Plant response rating, Corn (corn; Preemergence, 500 g ai/ha) | Barnyardgrass plant response rating (barnyardgrass [2]; [3]) | Barnyardgrass plant response rating (barnyardgrass [2]; [4]) | Barnyardgrass plant response rating (barnyardgrass [2]; [5]) | Plant response rating, Barnyardgrass (barnyardgrass [2]; Preemergence, 500 g ai/ha) | Morningglory plant response rating (morningglory; [3]) | Morningglory plant response rating (morningglory; [4]) | Morningglory plant response rating (morningglory; [5]) | Plant response rating, Morningglory (morningglory; Preemergence, 500 g ai/ha)
85: Plant response rating, Sedge, Umbrella (umbrella sedge; [6]) | Plant response rating, Sedge, Umbrella (umbrella sedge; [7]) | Plant response rating, Sedge, Umbrella (umbrella sedge; [8])
80: Plant response rating, Ducksalad (duck salad; [7]) | Plant response rating, Ducksalad (duck salad; [8])
20: Plant response rating, Crabgrass, Large (crabgrass; Preemergence, 500 g ai/ha) | Plant response rating, Barnyardgrass (barnyardgrass [1]; [6]) | Plant response rating, Barnyardgrass (barnyardgrass [1]; [7]) | Plant response rating, Barnyardgrass (barnyardgrass [1]; [8]) | Plant response rating, Barnyardgrass (barnyardgrass [1]; [9]) | Plant response rating, Ducksalad (duck salad; [6])

CC(c1c(C(F)(F)F)nn(C)c1Cl)[S+]([O-])c1cccc[n+]1[O-] (mixture of isomers) [Compound 27]
30: Foxtail, Giant plant response rating (giant foxtail; [5]) | Plant response rating, Wheat (wheat; Preemergence, 500 g ai/ha)
0: Crabgrass, Large plant response rating (crabgrass; [3]) | Plant response rating, Barnyardgrass (barnyardgrass [1]; [6]) | Plant response rating, Barnyardgrass (barnyardgrass [1]; [7]) | Plant response rating, Barnyardgrass (barnyardgrass [1]; [8]) | Plant response rating, Barnyardgrass (barnyardgrass [1]; [9]) | Plant response rating, Ducksalad (duck salad; [6]) | Plant response rating, Ducksalad (duck salad; [7]) | Plant response rating, Ducksalad (duck salad; [8]) | Plant response rating, Ducksalad (duck salad; [9]) | Pigweed plant response rating (redroot pigweed; [3]) | Pigweed plant response rating (redroot pigweed; [5]) | Plant response rating, Pigweed (redroot pigweed; Preemergence, 500 g ai/ha) | Plant response rating, Rice (rice; [6]) | Plant response rating, Rice (rice; [7]) | Plant response rating, Rice (rice; [8]) | Plant response rating, Rice (rice; [9]) | Velvetleaf plant response rating (velvetleaf; [3]) | Velvetleaf plant response rating (velvetleaf; [4]) | Foxtail, Giant plant response rating (giant foxtail; [3]) | Wheat plant response rating (wheat; [3]) | Wheat plant response rating (wheat; [4]) | Plant response rating, Sedge, Umbrella (umbrella sedge; [6]) | Plant response rating, Sedge, Umbrella (umbrella sedge; [7]) | Plant response rating, Sedge, Umbrella (umbrella sedge; [8]) | Plant response rating, Sedge, Umbrella (umbrella sedge; [10]) | Corn plant response rating (corn; [3]) | Corn plant response rating (corn; [5]) | Plant response rating, Corn (corn; Preemergence, 500 g ai/ha) | Barnyardgrass plant response rating (barnyardgrass [2]; [5]) | Morningglory plant response rating (morningglory; [3]) | Morningglory plant response rating (morningglory; [5]) | Plant response rating, Morningglory (morningglory; Preemergence, 500 g ai/ha)
70: Plant response rating, Barnyardgrass (barnyardgrass [2]; Preemergence, 500 g ai/ha)
60: Foxtail, Giant plant response rating (giant foxtail; [4])
10: Pigweed plant response rating (redroot pigweed; [4])
40: Crabgrass, Large plant response rating (crabgrass; [4]) | Crabgrass, Large plant response rating (crabgrass; [5])
50: Barnyardgrass plant response rating (barnyardgrass [2]; [4])
80: Plant response rating, Crabgrass, Large (crabgrass; Preemergence, 500 g ai/ha) | Plant response rating, Foxtail, Giant (giant foxtail; Preemergence, 500 g ai/ha)
20: Velvetleaf plant response rating (velvetleaf; [5]) | Plant response rating, Velvetleaf (velvetleaf; Preemergence, 500 g ai/ha) | Wheat plant response rating (wheat; [5]) | Corn plant response rating (corn; [4]) | Barnyardgrass plant response rating (barnyardgrass [2]; [3]) | Morningglory plant response rating (morningglory; [4])

Cn1nc(C(F)(F)F)c(C(Cl)S(=O)(=O)c2ccc(Cl)c[n+]2[O-])c1Cl (racemic) [Compound 21]
40: Crabgrass, Large plant response rating (crabgrass; [4]) | Pigweed plant response rating (redroot pigweed; [5]) | Foxtail, Giant plant response rating (giant foxtail; [4]) | Plant response rating, Sedge, Umbrella (umbrella sedge; [8])
60: Crabgrass, Large plant response rating (crabgrass; [5]) | Barnyardgrass plant response rating (barnyardgrass [2]; [5])
90: Plant response rating, Ducksalad (duck salad; [9]) | Plant response rating, Foxtail, Giant (giant foxtail; Preemergence, 500 g ai/ha) | Plant response rating, Sedge, Umbrella (umbrella sedge; [10]) | Plant response rating, Barnyardgrass (barnyardgrass [2]; Preemergence, 500 g ai/ha)
30: Barnyardgrass plant response rating (barnyardgrass [2]; [4])
0: Plant response rating, Barnyardgrass (barnyardgrass [1]; [6]) | Plant response rating, Barnyardgrass (barnyardgrass [1]; [7]) | Plant response rating, Barnyardgrass (barnyardgrass [1]; [8]) | Plant response rating, Ducksalad (duck salad; [6]) | Plant response rating, Ducksalad (duck salad; [7]) | Plant response rating, Ducksalad (duck salad; [8]) | Pigweed plant response rating (redroot pigweed; [3]) | Pigweed plant response rating (redroot pigweed; [4]) | Plant response rating, Rice (rice; [6]) | Plant response rating, Rice (rice; [7]) | Plant response rating, Rice (rice; [8]) | Plant response rating, Rice (rice; [9]) | Velvetleaf plant response rating (velvetleaf; [3]) | Velvetleaf plant response rating (velvetleaf; [4]) | Velvetleaf plant response rating (velvetleaf; [5]) | Plant response rating, Velvetleaf (velvetleaf; Preemergence, 500 g ai/ha) | Foxtail, Giant plant response rating (giant foxtail; [3]) | Wheat plant response rating (wheat; [3]) | Wheat plant response rating (wheat; [4]) | Wheat plant response rating (wheat; [5]) | Plant response rating, Wheat (wheat; Preemergence, 500 g ai/ha) | Plant response rating, Sedge, Umbrella (umbrella sedge; [6]) | Plant response rating, Sedge, Umbrella (umbrella sedge; [7]) | Corn plant response rating (corn; [3]) | Corn plant response rating (corn; [4]) | Corn plant response rating (corn; [5]) | Plant response rating, Corn (corn; Preemergence, 500 g ai/ha) | Barnyardgrass plant response rating (barnyardgrass [2]; [3]) | Morningglory plant response rating (morningglory; [3]) | Morningglory plant response rating (morningglory; [4]) | Plant response rating, Morningglory (morningglory; Preemergence, 500 g ai/ha)
80: Plant response rating, Crabgrass, Large (crabgrass; Preemergence, 500 g ai/ha) | Foxtail, Giant plant response rating (giant foxtail; [5])
20: Crabgrass, Large plant response rating (crabgrass; [3]) | Plant response rating, Barnyardgrass (barnyardgrass [1]; [9])
